Source: article PMC3121873, “Insertion of an Esterase Gene into a Specific Locust Pathogen (Metarhizium acridum) Enables It to Infect Caterpillars” (PLoS Pathogens, 2011)

Biological target: T1, MEST1 (Metarhizium robertsii, UniProt E9ETD4)
T1 construct: gene MAA_03283; full-length cDNA (395 aa, 42244 Da, no signal peptide) in pET28a, His6-tagged, 47 kDa band; E. coli Rosetta (DE3) crude extract, not purified
Test: spectrophotometric p-nitrophenol release
Type: biochemical
Conditions: 50 mM potassium phosphate pH 8, 37 °C; crude E. coli extract versus empty-vector extract

T1 sequence (E9ETD4 entry or part of it): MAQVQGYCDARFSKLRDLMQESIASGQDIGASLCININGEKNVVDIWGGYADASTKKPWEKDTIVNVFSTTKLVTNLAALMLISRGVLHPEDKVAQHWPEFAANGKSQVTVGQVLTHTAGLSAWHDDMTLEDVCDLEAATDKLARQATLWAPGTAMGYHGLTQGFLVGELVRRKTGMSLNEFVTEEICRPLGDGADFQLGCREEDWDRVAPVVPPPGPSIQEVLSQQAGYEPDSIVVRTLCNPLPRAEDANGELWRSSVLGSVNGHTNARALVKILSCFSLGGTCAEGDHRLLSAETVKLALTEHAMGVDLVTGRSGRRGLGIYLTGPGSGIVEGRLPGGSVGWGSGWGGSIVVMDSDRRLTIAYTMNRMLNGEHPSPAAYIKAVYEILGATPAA

| Structure (SMILES) | spectrophotometric p-nitrophenol release |
| --- | --- |
| CCCC(=O)Oc1ccc([N+](=O)[O-])cc1 [p-NP butyrate] | highest activity against p-NP propionate (C3), p-NP butyrate (C4) and p-NP caproate (C6) |
| CCC(=O)Oc1ccc([N+](=O)[O-])cc1 [p-NP propionate] | highest activity against p-NP propionate (C3), p-NP butyrate (C4) and p-NP caproate (C6) |
